Consider 12 molecules from patent US9550793B2, “Spirocyclic compounds, compositions and medicinal applications thereof” (Advinus Therapeutics Limited, priority 2012, dated 2017).

In assay [1] the target is T1, recombinant human DGAT1 (hDGAT1) (Homo sapiens, UniProt O75907).
T1 construct: host or cells: Sf9 insect cells (baculovirus expression system), used as membrane preparation
T1 sequence (O75907 1-488): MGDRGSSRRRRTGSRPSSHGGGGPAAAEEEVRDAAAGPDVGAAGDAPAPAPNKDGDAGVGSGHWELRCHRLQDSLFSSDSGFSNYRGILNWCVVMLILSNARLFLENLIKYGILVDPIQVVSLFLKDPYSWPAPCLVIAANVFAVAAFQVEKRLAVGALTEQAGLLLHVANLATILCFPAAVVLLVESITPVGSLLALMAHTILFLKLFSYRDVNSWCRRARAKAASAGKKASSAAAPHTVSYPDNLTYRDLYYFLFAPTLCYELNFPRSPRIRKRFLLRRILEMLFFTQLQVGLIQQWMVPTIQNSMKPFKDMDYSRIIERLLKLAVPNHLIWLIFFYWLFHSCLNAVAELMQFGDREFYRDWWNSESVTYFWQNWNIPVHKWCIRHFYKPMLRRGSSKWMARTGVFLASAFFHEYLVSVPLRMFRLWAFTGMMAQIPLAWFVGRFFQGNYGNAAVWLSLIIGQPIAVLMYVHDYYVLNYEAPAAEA
Briefly: Membrane-based recombinant hDGAT1 inhibitory activity using radiometry method (Method B). The format is biochemical. Particulars: values marked *: Method B (radiometry); Sf9 membranes expressing hDGAT1. How it is done:
Measurement of Membrane-Based Recombinant hDGAT1 Inhibitory Activity Using Radiometry Method (Method B):
The determination of recombinant human DGAT1 (hDGAT1) activity was carried out using a Radiometry based assay system based on literature report [European Journal of Medicinal Chemistry (2012), August; 54:324-42]. In brief, baculovirus expression system (Sf9) membranes expressing hDGAT1 were employed for the membrane based assay.
Radiometry hDGAT1 assays were performed using 1 μg of the hDGAT1, pre-incubated with 100 μl of the assay buffer [100 mM Tris-HCl (pH 7.5), 250 mM sucrose, and 1.25 mg/ml fatty acid free BSA] containing a known concentration of the inhibitor and supplemented with 300 μM of 1,2-dioleoylglycerol. The hDGAT1 reaction was initiated following an addition of 16.8 nCi of [14C]-oleoyl CoA. The reaction was terminated after 30 minutes of incubation at 37° C. using 300 μl alkaline ethanol stop solution mix (AESSM) [12.5% of 100% non-denatured ethanol, 10% deionized water, 2.5% NaOH, and 75% stop solution (78.4% isopropanol, 19.6% n-heptane, 2% deionized water)]. The ^14C triglyceride formed in this reaction was extracted using 600 μl of heptane. 250 μl of this extracted heptane was added to scintillation fluid and subjected to radioactivity measurement.

Assay [2] deals with T1, recombinant human DGAT1 (hDGAT1). In words: Membrane-based recombinant hDGAT1 inhibitory activity using LCMS method (Method A). The format is biochemical. Conditions: Sf9 membranes expressing hDGAT1.
The target of another assay is T2, hDGAT1 (Homo sapiens, UniProt O75907).
T2 construct: endogenous in cells; host or cells: HEK293H cells
T2 sequence (O75907 1-488): T1 sequence (O75907 1-488)
In words: Cell based hDGAT1 inhibitory activity in HEK293H cells (13C-oleic acid to triolein, LC-MS). The method, then: Measurement of Cell Based hDGAT1 Inhibitory Activity:
HEK293H cells were seeded in a 96-well poly-D-lysine plate at a density of 80000 cells per well. Following day, cells were washed with assay buffer-DMEM high glucose supplemented with 25 mM Hepes (pH7.5) carrying 0.25% fatty acid-free bovine serum. The cells were starved in assay buffer at 37° C./5% CO2 followed by removal of media and treatment with appropriate concentrations of the test compound at a final concentration of 0.2% DMSO for 20 min. 13C-Oleic acid pre-complexed with BSA (300 uM) was added and cells were incubated further at […]/5% CO2 for 120 min. The supernatant was removed and the cells were allowed to air dry briefly. The extraction solvent (90% isopropyl alcohol and 10% tetrahydrofuran with 20 nM of the internal standard [1,3-di-heptadecanoyl-2-(10Z-heptadecanoyl)-sn-glycerol-d5) was added to the cells, and allowed to shake at room temperature for 15 min. The extract was then transferred to glass vials for LC-MS analysis. An Applied Biosystems API3200 LC/MS system interfaced with a triplequadrupole mass spectrophotometer through a Turbo ion spray source was employed for the LC separation of the analytes using a Hi-Purity ADVANCE column eluted with 10 mM ammonium formate in IPA-H2O (80:20) at a flow rate of 0.4 mL/min. A characteristic in-source fragment ion m/z 639.7 formed from the precursor ion ^13C-54-triolein (m/z 956.8, ammonium adduct) at a collision energy of 30 and declustering potential 70 was monitored. IC50 values of the compounds were determined based on percent inhibition calculated on the basis of area ratio of product (TG) and internal standard (IS).

In the case of `O=C(O)CC1CC2(CCN(c3ccc(NC(=O)c4nnc(Nc5ccc(F)c(F)c5)o4)cn3)CC2)C1` [Example B32, 2-[7-[5-[[5-(3,4-difluoroanilino)-1,3,4-oxadiazole-2-carbonyl]amino]-2-pyridyl]-7-azaspiro[3.5]nonan-2-yl]acetic acid], the IC50 in assay [1] is 6.9 nM.
On the same count and under the same terms, the value for `O=C(O)CC1CC2(CCN(c3ccc(NC(=O)c4nnc(Nc5ccccc5F)o4)cn3)CC2)C1` [Example B33, 2-[7-[5-[[5-(2-fluoroanilino)-1,3,4-oxadiazole-2-carbonyl]amino]-2-pyridyl]-7-azaspiro[3.5]nonan-2-yl]acetic acid] was 26 nM.
Still for that read-out and setting: the value for `O=C(Nc1ccc(N2CCC3(CC2)CC(C(=O)O)C3)nc1)c1nnc(Nc2ccccc2)o1` [Example B34, 7-[5-[(5-anilino-1,3,4-oxadiazole-2-carbonyl)amino]-2-pyridyl]-7-azaspiro[3.5]nonane-2-carboxylic acid] was 24 nM.
Same read-out and setting: the value for `O=C(Nc1ccc(N2CCC3(CC2)CC(C(=O)O)C3)nc1)c1nnc(Nc2cccc(F)c2)o1` [Example B35, 7-[5-[[5-(3-fluoroanilino)-1,3,4-oxadiazole-2-carbonyl]amino]-2-pyridyl]-7-azaspiro[3.5]nonane-2-carboxylic acid] was 19 nM; that for `O=C(Nc1ccc(N2CCC3(CC2)CC(C(=O)O)C3)nc1)c1nnc(Nc2ccc(Cl)cc2)o1` [Example B36, 7-[5-[[5-(4-chloroanilino)-1,3,4-oxadiazole-2-carbonyl]amino]-2-pyridyl]-7-azaspiro[3.5]nonane-2-carboxylic acid] was 25 nM.
Regarding `O=C(Nc1ccc(N2CCC3(CC2)CC(C(=O)O)C3)nc1)c1nnc(Nc2cccc(C(F)(F)F)c2)o1` [Example B37, 7-[5-[[5-[3-(trifluoromethyl)anilino]-1,3,4-oxadiazole-2-carbonyl]amino]-2-pyridyl]-7-azaspiro[3.5]nonane-2-carboxylic acid], the IC50 in assay [1] was determined as 22 nM.
Same read-out and setting: the value for `O=C(O)CC1CC2(CCN(c3ccc(NC(=O)c4nnc(Nc5ccccc5F)o4)cc3)CC2)C1` [Example B38, 2-[7-[4-[[5-(2-fluoroanilino)-1,3,4-oxadiazole-2-carbonyl]amino]phenyl]-7-azaspiro[3.5]nonan-2-yl]acetic acid] was 50 nM; that for `O=C(O)CC1CC2(CCN(c3ccc(NC(=O)c4nnc(Nc5ccccc5)o4)cc3)CC2)C1` [Example B39, 2-[7-[4-[(5-anilino-1,3,4-oxadiazole-2-carbonyl)amino]phenyl]-7-azaspiro[3.5]nonan-2-yl]acetic acid] was 47 nM; that for `O=C(O)CC1CC2(CCN(c3ccc(NC(=O)c4nnc(Nc5ccc(F)c(F)c5)o4)cc3)CC2)C1` [Example B40, 2-[7-[4-[[5-(3,4-difluoroanilino)-1,3,4-oxadiazole-2-carbonyl]amino]phenyl]-7-azaspiro[3.5]nonan-2-yl]acetic acid] was 20 nM.
Turning to `Nc1ncnc2c1C(=O)N(c1ccc(C3CCC4(CCC(CC(=O)O)CC4)CC3)cc1)CCO2` (stereo not drawn) [Example H3, 2-[9-[4-(4-amino-5-oxo-7,8-dihydropyrimido[5,4-f][1,4]oxazepin-6-yl)phenyl]spiro[5.5]undecan-3-yl]acetic acid], the IC50 in assay [2] turned out to be 42 nM; against hDGAT1, 15 nM.
For `Nc1ncnc2c1C(=O)N(c1ccc(C3CCC4(CC3)CC4C(=O)O)cc1)CCO2` (stereo not drawn) [Example I3, 6-[4-(4-amino-5-oxo-7,8-dihydropyrimido[5,4-f][1,4]oxazepin-6-yl)phenyl]spiro[2.5]octane-2-carboxylic acid], the IC50 in assay [2] came out at 54 nM; against hDGAT1, 26 nM.
In the case of `Nc1ncnc2c1C(=O)N(c1ccc(C3CCC4(CC3)CC4C(=O)O)cc1)CCO2` (stereo not drawn) [Example I4, 6-[4-(4-amino-5-oxo-7,8-dihydropyrimido[5,4-f][1,4]oxazepin-6-yl)phenyl]spiro[2.5]octane-2-carboxylic acid], the IC50 in assay [2] worked out at 94 nM; against hDGAT1, 35 nM.
